According to PMC7859723 (International Journal of Biological Macromolecules, 2021):

Tests used:
3CLpro [1] = conditions: read-out: IC50, inhibition of 3CLpro activity; cited from earlier work
3CLpro [2] = conditions: cited from earlier work
SARS-CoV-2 3CLpro [3] = target: T1, SARS-CoV-2 3CLpro (Severe acute respiratory syndrome coronavirus 2, UniProt P0DTD1); assay: Thermal shift assay; format: binding; conditions: compared with DMSO control
[4] = retrieved from database; ref TCMSP database; cited from earlier work
Water solubility = format: physicochemical
SARS-CoV-2 3CLpro [5] = target: T1, SARS-CoV-2 3CLpro; assay: FRET protease assay, 3CLpro enzyme activity inhibition; format: biochemical
SARS-CoV-2 3CLpro [6] = target: T1, SARS-CoV-2 3CLpro; assay: SPR binding assay on immobilized 3CLpro

SMILES | IC50 (SARS-CoV-2 3CLpro [5]) [nM] | Kd (SARS-CoV-2 3CLpro [6]) [nM] | other results
O=c1c2ccccc2[se]n1-c1ccccc1 [Ebselen] |  |  | IC50 (3CLpro [1]): 670 ± 90 nM; EC50 (3CLpro [2]): 4670 ± 800 nM
O=C(O[C@@H]1Cc2c(O)cc(O)cc2O[C@@H]1c1cc(O)c(O)c(O)c1)c1cc(O)c(O)c(O)c1 [Epigallocatechin-3-gallate, epigallocatechin-3-gallate] |  |  | effect on thermal stability of 3CLpro (SARS-CoV-2 3CLpro [3]): altered the thermal stability of SARS-CoV-2 3CLpro in a dose-dependent manner; OB (oral bioavailability) [4]: 55.09%
COc1cc(-c2oc3cc(O)cc(O)c3c(=O)c2O)ccc1O [Isorhamnetin, isorhamnetin] |  |  | water solubility (Water solubility): low water solubility
O=c1c(O)c(-c2ccc(O)cc2)oc2cc(O)cc(O)c12 [Kaempferol, kaempferol] | > 100000 | 1700 | 
O=c1cc(-c2ccc(O)c(O)c2)oc2cc(O)cc(O)c12 [Luteolin, luteolin] | 89700 | 1630 | 
O=C1C[C@@H](c2ccc(O)cc2)Oc2cc(O)cc(O)c21 [Naringenin, naringenin] | > 100000 | 2870 | 
